According to the NIST ThermoML archive (doi:10.1021/je700512a):
± gives the expanded uncertainty stated by the source.

Settings: Liquid, Ebulliometric method (Recirculating still)

vapor or sublimation pressure (288.15 K) [kPa]	vapor or sublimation pressure (298.15 K) [kPa]	vapor or sublimation pressure (308.15 K) [kPa]	Structure (SMILES)
2.703 ± 0.053	4.975 ± 0.061	8.119 ± 0.068	C1COCCO1 [1,4-dioxane]
1.706 ± 0.04	3.172 ± 0.047	5.556 ± 0.055	O [water]
